The source of these data is publication PMC12040169 (PLOS Biology, 2025).

Each structure is given as a SMILES string.

A short description of the series: in vitro. The settings on record: human, hela cells, % viability.
In general, viability refers to a read-out of living cells in per cent, often relative to untreated cells. As for `COc1c(C)cc(-c2[nH]c(C)nc2C)cc1C` [CBK306941], the viability at 28.5 h, 10 µM turned out to be 86.6%.
In the case of `CC1(C)Cc2nc(N3CCOCC3)ncc2C(NC(=O)C2CCC2)C1` (centres unmarked) [CBK306943], the viability at 28.5 h, 10 µM is 83.8%.
As to `CCCC(=O)NCC1Cc2cc(F)cc(-c3ccc(C(C)=O)s3)c2O1` (centres unmarked) [CBK306945], the viability at 28.5 h, 10 µM stood at 90.3%.
On to `CCN1CCC2(CCC1=O)CN(Cc1cncn1CC(C)C)CCN2C` (centres unmarked) [CBK306947], for which the viability at 28.5 h, 10 µM is 96%.
Under `Cc1cccnc1CN1CCN(C(=O)NCCSc2nncn2C)CC1` [CBK306949] stands 89.9%; under `CN1CC2(CCCN(Cc3noc(-c4ccccc4)n3)C2)OC1=O` (centres unmarked) [CBK306952], 93%; under `Cc1nc(N2CCCCC2)ncc1C(=O)NCCSc1nncn1C` [CBK306955], 81.1%.
With `Cn1c(O)c(CCNc2cc([C@H]3C[C@@H](O)C3)nc(N)n2)cnc1=O` [CBK306956], the viability at 28.5 h, 10 µM amounted to 104%.
Under `O=c1cc(N2CCN(CC3CCOC3)CC2)c(-c2ccccc2)n[nH]1` (centres unmarked) [CBK306957] stands 91.5%; under `Cc1cccc(C2CCCN(C(=O)Nc3cnn(C)c3)C2)c1` (centres unmarked) [CBK306961], 102%.
In the case of `Cc1nc(CCCn2cnc3nccnc3c2=O)sc1C` [CBK306962], the viability at 28.5 h, 10 µM was found to be 103%.
Under `Cc1nc(N)nc(NCC(O)CN(C)C)c1Cl` (centres unmarked) [CBK306963] stands 81.7%.
For `COCCN(Cc1ccncc1)C(=O)c1cnc2ccnn2c1C` [CBK306965], the viability at 28.5 h, 10 µM worked out at 92.3%.
Under `Cc1cc(C)c2nonc2c1S(=O)(=O)NCCN1CCCCC1CO` (centres unmarked) [CBK306966] stands 94.8%.
`CCN1CCC2(CCC1=O)CN(Cc1noc(CC(C)C)n1)CCN2C` (centres unmarked) [CBK306971]: the viability at 28.5 h, 10 µM is 90.5%.
Under `Cn1cc(CCNC(=O)N(Cc2ccccn2)CC2CCCO2)cn1` (centres unmarked) [CBK306973] stands 99.2%.
On to `Nc1nc(CCC(=O)N2CCCC(c3cc(O)ncn3)C2)cs1` (centres unmarked) [CBK306976], for which the viability at 28.5 h, 10 µM turned out to be 89.5%.
Under `CC(C)(O)C1CCCN(C(=O)c2coc(COc3cccc(F)c3)n2)C1` (centres unmarked) [CBK306977] stands 77.4%; under `CC1(C)Cc2nc(N3CCOCC3)ncc2C(NC(=O)NC(C)(C)C)C1` (centres unmarked) [CBK306978], 101%.
Regarding `O=C(c1cn2cc(-c3cccs3)n(CC3CC3)c(=O)c2n1)N1CC(O)C1` [CBK306979], the viability at 28.5 h, 10 µM worked out at 97.4%.
Under `c1cnc(NCc2cc3n(n2)CCN(CC2CCCNC2)C3)nc1` (centres unmarked) [CBK306981] stands 102%.
Take `Cn1ccnc1CN1CCC2(CC1)CC(C(=O)O)N(C(=O)C1CC1)C2` (centres unmarked) [CBK306986]: the viability at 28.5 h, 10 µM is 88.2%.
As for `COCC1(C(=O)N(C)Cc2nnc(-c3ccccc3)o2)CCC1` [CBK306987], the viability at 28.5 h, 10 µM was found to be 109%.
On to `Cc1cc(O)n2nc(CC(=O)NCc3nnc4n3CCCCC4)nc2n1` [CBK306989], for which the viability at 28.5 h, 10 µM stood at 103%.
Under `CCN1CCN(Cc2cc(Cl)ccc2OCCCn2ccnc2)CC1` [CBK306990] stands 83.2%; under `Cc1nc2c(c(=O)n1C)CN(Cc1cc(=O)n3cccc(O)c3n1)C2` [CBK306991], 78.8%.
Take `Cc1nc(CCC(=O)N2Cc3cnn(Cc4ccc(F)cc4)c3C2)n[nH]1` [CBK306993]: the viability at 28.5 h, 10 µM was determined as 109%.
Under `O=C(NCCCn1cccc1)N1CCN(Cc2ccc(F)cc2)CC1` [CBK306994] stands 107%; under `CCN1CCCC(CNS(=O)(=O)c2cc(-n3cccn3)ccc2OC)C1` (centres unmarked) [CBK306997], 85.3%; under `Cc1ccc2nc(N3CCCC(O)C3)c(CN3CCSCC3)cc2c1` (centres unmarked) [CBK307000], 94.7%.
As for `CCC1(C)CC(=O)c2cc(NC(=O)N(CCO)CCO)ccc2O1` (centres unmarked) [CBK307003], the viability at 28.5 h, 10 µM was 116%.
`Cc1cc(NCC2(CO)CCOCC2)nc(N2CCCC2)n1` [CBK307005]: the viability at 28.5 h, 10 µM was 85.8%.
With `CC(NC(=O)C1(Cn2ccnc2)CC1)c1ccccc1-n1cccn1` (centres unmarked) [CBK307006], the viability at 28.5 h, 10 µM worked out at 94.3%.
With `CC1(C#N)CCCN(Cc2c[nH]nc2C(=O)O)C1` (centres unmarked) [CBK307010], the viability at 28.5 h, 10 µM was found to be 80.1%.
Consider `Cn1cc(C(Nc2cccc(C#N)n2)[C@H]2C[C@H](O)C2)cn1` (some centres unmarked) [CBK307011], for which the viability at 28.5 h, 10 µM amounted to 105%.
Under `CCOC(=O)C1(Cc2ccc(F)cc2F)CCCN(C(=O)CC)C1` (centres unmarked) [CBK307012] stands 92.7%; under `CCOc1ccc(Cl)cc1CN(C)C(=O)NCC(c1ccco1)N(C)C` (centres unmarked) [CBK307013], 88%.
Under `COCCc1nc(CN(C)C)n(Cc2ccccc2C)n1` [CBK307014] stands 87.8%.
In the case of `COc1nc2ccn(CCNC(=O)C(C)C)c(=O)c2cc1C#N` [CBK307015], the viability at 28.5 h, 10 µM came out at 95.8%.
Under `Cc1ccc2nc(N3CCCC(O)C3)c(CN3CCC(F)CC3)cc2c1` (centres unmarked) [CBK307016] stands 89.1%; under `CCN1CC2(CCC1=O)CCN(c1ccnc(OC)c1C#N)CC2` [CBK307018], 95%; under `Nc1nc(CCC(=O)N2Cc3cnn(Cc4ccc(F)cc4)c3C2)cs1` [CBK307019], 99.6%.
As for `Cc1cccc(OCC2CCCN(C(=O)c3cn(C)cn3)C2)c1` (centres unmarked) [CBK307021], the viability at 28.5 h, 10 µM was determined as 83.4%.
Under `Cc1cc2nc(C(=O)NCCCn3ccnc3C(C)C)cc(C)n2n1` [CBK307022] stands 90.5%.
Take `Cn1nc(NC(=O)Cc2ccsc2)c2c(N3CCOCC3)cccc21` [CBK307023]: the viability at 28.5 h, 10 µM was determined as 109%.
Turning to `CN1CCC(Cc2nc(-c3ccc(Cl)s3)n(CCO)n2)CC1` [CBK307025], the viability at 28.5 h, 10 µM worked out at 100%.
Under `Cc1ccn2c(F)c(C(=O)N3CCCCC3CN3CCOCC3)nc2c1` (centres unmarked) [CBK307028] stands 82%; under `O=C(CCn1cnnn1)N1C[C@H]2CC[C@@H]1CN(Cc1cccnc1)C2` [CBK307029], 88.9%; under `Cc1cccc(=O)n1CCCNc1cc(C2CCOC2)nc(N)n1` (centres unmarked) [CBK307030], 81.9%.
Turning to `CCCNC(=O)N1CCCC(Cc2ccc(F)cc2F)(C(=O)OCC)C1` (centres unmarked) [CBK307031], the viability at 28.5 h, 10 µM stood at 94.2%.
Under `Cn1c(N2CCOCC2)nc2cc(C(=O)NCCn3cccn3)ccc21` [CBK307033] stands 87.5%; under `Cc1cc(-c2cn3cc(C(=O)NCCCCO)nc3c(=O)n2C)c(C)o1` [CBK307037], 106%; under `Cc1cc(-c2cn3cc(C(=O)N4CCCC4C)nc3c(=O)n2C)c(C)o1` (centres unmarked) [CBK307038], 84.8%.
Under `CCNC(=O)C1CCN(Cc2nc(-c3cc(OC)ccc3F)oc2C)C1` (centres unmarked) [CBK307040] stands 98.4%.
Turning to `CC(=O)Nc1ccc(CNC(=O)CN(C)Cc2cc(C)on2)cc1` [CBK307042], the viability at 28.5 h, 10 µM was determined as 82.4%.
Under `Cc1nn2c(=O)[nH]ncc2c1-c1ccccc1C(=O)N(C(C)C)C(C)C` [CBK307043] stands 109%.
With `Nc1nonc1-n1nncc1CN1CCCCC1` [CBK307045], the viability at 28.5 h, 10 µM is 86.9%.
Under `CCC(NC(=O)C1(Cn2ccnc2)CC1)c1ncccc1C` (centres unmarked) [CBK307046] stands 119%; under `COc1cncc(C(NC(=O)c2ccc3[nH]nnc3c2)[C@H]2C[C@@H](O)C2)c1` (some centres unmarked) [CBK307049], 108%.
